# In paper PMC10058949, “Effect of N-Terminal Peptide Modifications on In Vitro and In Vivo Properties of ^177Lu-Labeled Peptide Analogs Targeting CCK2R” (Pharmaceutics, 2023):
# Like-named read-outs stand apart in the source and are kept apart here. Non-standard residues stand in square brackets, D forms with d. Residues, ends and D or L forms follow the SMILES beside them. *: point of attachment. DOTA = O=C(O)CN1CCN(CC(=O)O)CCN(CC(=O)*)CCN(CC(=O)O)CC1; 1Nal = N[C@@H](Cc1cccc2ccccc12)C(=O)O; NMeNle = CCCC[C@H](NC)C(=O)O
# Assays:
# CCK2R = molecular target: T1, CCK2R (Homo sapiens, UniProt P32239); experiment: Competition assay against [125I][3-iodo-Tyr12,Leu15]gastrin-I on A431-CCK2R cells; format: binding
# T1 construct: expressed in transfected cells; host or cells: A431 human epidermoid carcinoma cells (A431-CCK2R, from Dr. Luigi Aloj)
# T1 sequence (P32239 1-447): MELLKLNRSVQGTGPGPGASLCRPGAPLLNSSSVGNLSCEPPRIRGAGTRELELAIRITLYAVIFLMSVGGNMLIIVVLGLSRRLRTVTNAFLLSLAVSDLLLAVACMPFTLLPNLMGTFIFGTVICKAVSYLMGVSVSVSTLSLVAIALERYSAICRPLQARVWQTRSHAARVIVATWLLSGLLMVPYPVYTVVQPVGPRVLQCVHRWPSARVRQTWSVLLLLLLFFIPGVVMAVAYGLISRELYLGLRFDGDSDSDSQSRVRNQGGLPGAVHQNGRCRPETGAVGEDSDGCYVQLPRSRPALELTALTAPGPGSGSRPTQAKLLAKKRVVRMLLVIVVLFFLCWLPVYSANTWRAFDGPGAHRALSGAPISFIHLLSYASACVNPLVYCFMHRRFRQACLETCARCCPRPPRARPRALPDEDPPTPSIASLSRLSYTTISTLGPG
# Method: Binding experiments were performed using 96-well filter plates (MultiScreenHTS-FB, Merck Group, Darmstadt, Germany) washed with 10 mM TRIS/139 mM NaCl pH 7.4 (2 × 250 µL). For the experiment, 0.4 × 10^6 A431-CCK2R cells in 100 µL binding buffer (20 mM HEPES buffer with pH 7.4 and 10 mM MgCl2, 14 µM bacitracin, and 0.5% BSA) were added to each well. Fifty µL of [^125I][3-iodo-Tyr^12,Leu^15]gastrin-I (~25,000 cpm) and 50 µL of different dilutions of the peptide conjugates (reaching final concentrations of 0.0003–1000 nM) were added and the cells were incubated in triplicates for 1 h at room temperature. […] Incubation was interrupted by filtration of the medium and rapid rinsing with ice-cold 10 mM TRIS/139 mM NaCl pH 7.4 (2 × 200 µL). The filters were collected and counted in a γ-counter (2480 Wizard2 3”, PerkinElmer Life Sciences and Analytical Sciences, formerly Wallac Oy, Turku, Finland). Half-maximal inhibitory concentration (IC50) values were calculated following nonlinear regression with Origin software (Microcal Origin 6.1, Northampton, MA, USA).
# [1] = Octanol/PBS distribution coefficient (logD7.4); format: physicochemical; settings: pH 7.4
# Method: (§1) The stability studies with the ^177Lu-labeled peptide analogs were carried out at a concentration of 0.5 nmol peptide/mL in fresh human serum (n = 2) for up to 24 h. A mixture of 0.05 nmol/mL of the radiolabeled peptides in PBS and octanol (1/1, v/v) was used to evaluate the octanol/PBS distribution coefficient (logD7.4; n = 8). To determine the protein binding in human serum by Sephadex G-50 size-exclusion chromatography (GE Healthcare Illustra, Little Chalfont, UK), a 25 µL serum sample was used for different time points after incubation. All steps were performed according to previously published protocols.
# human serum proteins = experiment: Protein binding in human serum by Sephadex G-50 size-exclusion chromatography; format: in vitro ADME
# Method: as §1
# [2] = Biodistribution 4 h p.i. in A431-CCK2R/A431-mock xenografted BALB/c nude mice; format: in vivo; settings: female, BALB/c nude, mouse, in vivo, iv, 20 pmol, total radioactivity
# Method: (§2) Then, after 7–11 days, when visible tumor xenografts were formed, groups of 5 mice were injected intravenously via a lateral tail vein with ~0.5 MBq of radiolabeled peptide, corresponding to 20 pmol of peptide, in a total volume of ~150 µL in PBS/0.5% BSA. Using an additional mouse per group, a blocking study was performed by co-injecting a 1000-fold molar excess of the respective peptide analog (20 nmol) together with the radiolabeled peptide. For quantification, a 1:1, 1:10 and 1:50 standard was prepared using aliquots of the injection solution mixed with PBS/0.5% BSA. Mice were euthanized by cervical dislocation 4 h after injection. Subsequently, a blood sample was collected, and different tissues were dissected. All samples, as well as the rest of the body were weighed, and the activity measured in the γ-counter together with the standard. Results were expressed as percentage of injected activity per gram of tissue (%IA/g).
# [3] = Biodistribution blocking experiment with 1000-fold excess of non-radiolabeled peptide; format: in vivo, mice; settings: female, BALB/c nude, mouse, in vivo, iv, total radioactivity, blocking
# Method: as §2
structure (smiles),measurement,setting,value
"CCCC[C@@H](C(=O)N[C@@H](CC(=O)O)C(=O)N[C@@H](Cc1cccc2ccccc12)C(N)=O)N(C)C(=O)[C@H](Cc1c[nH]c2ccccc12)NC(=O)CCNC(=O)CC(O)CNC(=O)CC(O)CNC(=O)CN1CCN(CC(=O)O)CCN(CC(=O)O)CCN(CC(=O)O)CC1 (stereo partly drawn) [Peptide 2, DOTA-(GABOB)2-βAla-Trp-(N-Me)Nle-Asp-1Nal-NH2]",IC50,"CCK2R; A431-CCK2R cells, 1 h room temperature, n = 3, read-out: IC50",0.24 nM
"CCCC[C@@H](C(=O)N[C@@H](CC(=O)O)C(=O)N[C@@H](Cc1cccc2ccccc12)C(N)=O)N(C)C(=O)[C@H](Cc1c[nH]c2ccccc12)NC(=O)CNC(=O)[C@H](Cc1ccc(O)cc1)NC(=O)[C@H](C)NC(=O)[C@@H](CCC(=O)O)NC(=O)[C@@H](CCC(=O)O)NC(=O)[C@@H](CCC(=O)O)NC(=O)[C@@H](CCC(=O)O)NC(=O)[C@@H](CCC(=O)O)NC(=O)[C@@H](CCC(=O)O)NC(=O)CN1CCN(CC(=O)O)CCN(CC(=O)O)CCN(CC(=O)O)CC1 [Peptide 1, DOTA-(DGlu)6-Ala-Tyr-Gly-Trp-(N-Me)Nle-Asp-1Nal-NH2] ({DOTA}-[dE][dE][dE][dE][dE][dE]AYGW[NMeNle]D[1Nal]-NH2)",IC50,CCK2R,0.18 ± 0.02 nM
"CCCC[C@@H](C(=O)N[C@@H](CC(=O)O)C(=O)N[C@@H](Cc1cccc2ccccc12)C(N)=O)N(C)C(=O)[C@H](Cc1c[nH]c2ccccc12)NC(=O)CNC(=O)[C@H](Cc1ccc(O)cc1)NC(=O)[C@H](C)NC(=O)[C@@H](CCC(=O)O)NC(=O)[C@@H](CCC(=O)O)NC(=O)[C@@H](CCC(=O)O)NC(=O)[C@@H](CCC(=O)O)NC(=O)[C@@H](CCC(=O)O)NC(=O)[C@@H](CCC(=O)O)NC(=O)CN1CCN(CC(=O)O)CCN(CC(=O)O)CCN(CC(=O)O)CC1 [[^177Lu]Lu-1, metal not drawn] ({DOTA}-[dE][dE][dE][dE][dE][dE]AYGW[NMeNle]D[1Nal]-NH2)",logD,[1],-4.18 ± 0.24
same,change in binding to human serum proteins compared to [177Lu]Lu-DOTA-MGS5,human serum proteins,increased by a factor of two
same,tissue uptake at 4 h,[2]; uptake in A431-CCK2R xenografts,22.2 ± 6.23 %ID/g
same,tissue uptake at 4 h,[2]; uptake in A431-mock xenografts,0.14 ± 0.04 %ID/g
same,tissue uptake at 4 h,[2]; uptake in blood,0.02 %ID/g
same,tissue uptake at 4 h,[2]; uptake in femur,0.21 ± 0.05 %ID/g
same,tissue uptake at 4 h,[2]; uptake in heart,0.06 ± 0.01 %ID/g
same,tissue uptake at 4 h,[2]; uptake in intestine,0.42 ± 0.07 %ID/g
same,tissue uptake at 4 h,[2]; uptake in kidneys,21.6 ± 2.11 %ID/g
same,tissue uptake at 4 h,[2]; uptake in liver,2.48 ± 0.39 %ID/g
same,tissue uptake at 4 h,[2]; uptake in lung,0.12 ± 0.04 %ID/g
same,tissue uptake at 4 h,[2]; uptake in muscle,0.04 ± 0.02 %ID/g
same,tissue uptake at 4 h,[2]; uptake in pancreas,1.25 ± 0.27 %ID/g
same,tissue uptake at 4 h,[2]; uptake in spleen,1.86 ± 0.62 %ID/g
same,tissue uptake at 4 h,[2]; uptake in stomach,4.77 ± 1.1 %ID/g
same,tissue uptake at 4 h,[3]; uptake in A431-CCK2R xenograft,0.45 %ID/g
same,tissue uptake at 4 h,[3]; uptake in A431-mock xenograft,0.12 %ID/g
same,tissue uptake at 4 h,[3]; uptake in blood,0.03 %ID/g
same,tissue uptake at 4 h,[3]; uptake in femur,0.18 %ID/g
same,tissue uptake at 4 h,[3]; uptake in heart,0.05 %ID/g
same,tissue uptake at 4 h,[3]; uptake in lung,0.06 %ID/g
same,tissue uptake at 4 h,[3]; uptake in pancreas,0.05 %ID/g
same,tissue uptake at 4 h,[3]; uptake in stomach,0.06 %ID/g
